# Measured values reported in paper PMC5513037, “Examining the influence of specificity ligands and ATP-competitive ligands on the overall effectiveness of bivalent kinase inhibitors” (Proteome Science, 2017).
# What was measured:
# Assay in all cases: KAM-matrix competition in K562 lysate;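 for 0.001 uM KAM: median log10 fold change of treatment over DMSO control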;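 for 0.01 uM KAM: median log10 fold change of treatment over DMSO control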;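 for 0.1 uM KAM: median log10 fold change of treatment over DMSO control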;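 for 1 uM KAM: median log10 fold change of treatment over DMSO control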;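 for 10 uM KAM: median log10 fold change of treatment over DMSO control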
# Format in all cases: binding
# RIOK2 = biological target: T1, RIOK2 (Homo sapiens, UniProt Q9BVS4)
# T1 construct: endogenous in cells; host or cells: K562
# T1 sequence (Q9BVS4 whole entry): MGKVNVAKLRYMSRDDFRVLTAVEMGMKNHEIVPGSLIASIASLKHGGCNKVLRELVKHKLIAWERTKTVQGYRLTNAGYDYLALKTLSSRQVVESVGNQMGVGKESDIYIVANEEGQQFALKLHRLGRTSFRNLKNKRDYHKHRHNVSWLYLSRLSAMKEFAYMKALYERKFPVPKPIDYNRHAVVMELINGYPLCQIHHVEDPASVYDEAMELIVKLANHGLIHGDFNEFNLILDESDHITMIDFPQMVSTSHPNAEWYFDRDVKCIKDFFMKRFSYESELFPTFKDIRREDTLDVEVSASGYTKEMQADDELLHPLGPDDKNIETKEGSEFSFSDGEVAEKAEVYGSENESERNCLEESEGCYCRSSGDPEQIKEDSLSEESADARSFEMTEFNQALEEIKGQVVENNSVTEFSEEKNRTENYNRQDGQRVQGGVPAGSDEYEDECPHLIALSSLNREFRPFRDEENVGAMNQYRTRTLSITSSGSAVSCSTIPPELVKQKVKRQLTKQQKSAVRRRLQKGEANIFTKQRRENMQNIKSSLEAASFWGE
# Protocol: (§1) Supplement 12953_2017_125_MOESM1_ESM.zip/MS_Supp Info.xlsx, sheet "KAM" | column: 10 uM KAM; 1 uM KAM; 0.1 uM KAM; 0.01 uM KAM; 0.001 uM KAM; RB50
# STK25 = biological target: T2, STK25 (Homo sapiens, UniProt O00506);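 for 0.001 uM KAM: median log10 fold change of treatment over DMSO control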;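 for 0.01 uM KAM: median log10 fold change of treatment over DMSO control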;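 for 0.1 uM KAM: median log10 fold change of treatment over DMSO control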;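 for 1 uM KAM: median log10 fold change of treatment over DMSO control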;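 for 10 uM KAM: median log10 fold change of treatment over DMSO control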
# T2 construct: endogenous in cells; host or cells: K562 cell lysate
# T2 sequence (O00506 whole entry): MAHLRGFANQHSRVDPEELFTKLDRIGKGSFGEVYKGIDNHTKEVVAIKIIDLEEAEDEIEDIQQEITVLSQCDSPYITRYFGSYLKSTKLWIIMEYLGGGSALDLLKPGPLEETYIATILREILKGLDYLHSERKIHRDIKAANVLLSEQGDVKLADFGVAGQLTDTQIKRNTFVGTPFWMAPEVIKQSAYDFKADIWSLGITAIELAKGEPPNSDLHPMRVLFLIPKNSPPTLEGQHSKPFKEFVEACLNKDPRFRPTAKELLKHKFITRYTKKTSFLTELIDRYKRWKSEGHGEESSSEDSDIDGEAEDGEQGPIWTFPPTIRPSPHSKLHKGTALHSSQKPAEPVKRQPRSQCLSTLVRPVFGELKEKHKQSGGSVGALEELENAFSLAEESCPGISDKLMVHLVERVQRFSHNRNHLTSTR
# Protocol: as §1
# MAPK14 = biological target: T3, MAPK14 (Homo sapiens, UniProt Q16539);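 for 0.001 uM KAM: median log10 fold change of treatment over DMSO control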;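 for 0.01 uM KAM: median log10 fold change of treatment over DMSO control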;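 for 0.1 uM KAM: median log10 fold change of treatment over DMSO control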;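 for 1 uM KAM: median log10 fold change of treatment over DMSO control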;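 for 10 uM KAM: median log10 fold change of treatment over DMSO control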
# T3 construct: endogenous in cells; host or cells: K562
# T3 sequence (Q16539 whole entry): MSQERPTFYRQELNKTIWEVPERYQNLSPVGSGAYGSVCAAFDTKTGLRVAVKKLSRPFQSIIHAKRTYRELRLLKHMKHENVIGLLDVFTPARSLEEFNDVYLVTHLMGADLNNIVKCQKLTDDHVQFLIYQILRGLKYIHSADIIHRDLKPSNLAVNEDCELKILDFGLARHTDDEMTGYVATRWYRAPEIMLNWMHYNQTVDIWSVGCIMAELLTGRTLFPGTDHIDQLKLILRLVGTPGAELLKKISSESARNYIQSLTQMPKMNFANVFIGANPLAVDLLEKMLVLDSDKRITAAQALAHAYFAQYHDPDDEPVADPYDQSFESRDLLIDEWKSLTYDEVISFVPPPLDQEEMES
# Protocol: as §1
# CSNK1A1 = biological target: T4, CSNK1A1 (Homo sapiens, UniProt P48729);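 for 0.001 uM KAM: median log10 fold change of treatment over DMSO control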;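 for 0.01 uM KAM: median log10 fold change of treatment over DMSO control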;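 for 0.1 uM KAM: median log10 fold change of treatment over DMSO control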;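 for 1 uM KAM: median log10 fold change of treatment over DMSO control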;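 for 10 uM KAM: median log10 fold change of treatment over DMSO control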
# T4 construct: endogenous in cells; host or cells: K562
# T4 sequence (P48729 whole entry): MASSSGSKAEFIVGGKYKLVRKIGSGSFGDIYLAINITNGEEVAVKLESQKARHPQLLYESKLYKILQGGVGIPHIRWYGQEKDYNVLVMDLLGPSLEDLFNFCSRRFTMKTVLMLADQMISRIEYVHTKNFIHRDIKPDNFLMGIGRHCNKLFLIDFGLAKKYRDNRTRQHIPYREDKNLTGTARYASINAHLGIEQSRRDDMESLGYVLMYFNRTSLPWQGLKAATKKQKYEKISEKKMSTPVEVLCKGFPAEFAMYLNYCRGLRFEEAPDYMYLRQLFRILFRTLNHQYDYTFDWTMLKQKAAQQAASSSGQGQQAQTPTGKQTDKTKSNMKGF
# Protocol: as §1
# TAOK3 = biological target: T5, TAOK3 (Homo sapiens, UniProt Q9H2K8)
# T5 construct: endogenous in cells; host or cells: K562
# T5 sequence (Q9H2K8 1-898): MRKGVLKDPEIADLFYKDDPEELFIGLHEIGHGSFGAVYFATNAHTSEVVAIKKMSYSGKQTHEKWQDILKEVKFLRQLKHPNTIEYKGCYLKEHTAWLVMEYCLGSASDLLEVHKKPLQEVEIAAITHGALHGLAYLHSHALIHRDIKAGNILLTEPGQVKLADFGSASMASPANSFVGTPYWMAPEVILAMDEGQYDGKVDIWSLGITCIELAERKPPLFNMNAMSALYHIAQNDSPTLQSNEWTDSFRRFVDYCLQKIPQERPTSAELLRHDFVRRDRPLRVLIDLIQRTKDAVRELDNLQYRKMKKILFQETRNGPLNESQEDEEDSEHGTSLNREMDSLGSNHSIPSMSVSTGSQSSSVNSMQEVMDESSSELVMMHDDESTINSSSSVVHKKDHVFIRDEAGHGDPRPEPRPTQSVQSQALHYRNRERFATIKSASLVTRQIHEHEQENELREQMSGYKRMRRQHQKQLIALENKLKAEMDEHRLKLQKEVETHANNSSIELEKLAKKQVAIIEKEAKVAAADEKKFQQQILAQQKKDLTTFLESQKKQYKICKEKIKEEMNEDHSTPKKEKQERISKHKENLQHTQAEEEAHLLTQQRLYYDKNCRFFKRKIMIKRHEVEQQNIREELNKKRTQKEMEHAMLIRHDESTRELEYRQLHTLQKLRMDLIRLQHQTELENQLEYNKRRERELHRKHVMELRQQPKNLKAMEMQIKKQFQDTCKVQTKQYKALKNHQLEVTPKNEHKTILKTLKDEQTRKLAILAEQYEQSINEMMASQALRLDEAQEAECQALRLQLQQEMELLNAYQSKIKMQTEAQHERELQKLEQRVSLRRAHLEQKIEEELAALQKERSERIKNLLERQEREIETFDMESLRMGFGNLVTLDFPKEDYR
# Protocol: as §1
# IRAK1 = biological target: T6, IRAK1 (Homo sapiens, UniProt P51617);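 for 0.001 uM KAM: median log10 fold change of treatment over DMSO control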;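 for 0.01 uM KAM: median log10 fold change of treatment over DMSO control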;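 for 0.1 uM KAM: median log10 fold change of treatment over DMSO control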;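 for 1 uM KAM: median log10 fold change of treatment over DMSO control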;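 for 10 uM KAM: median log10 fold change of treatment over DMSO control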
# T6 construct: endogenous in cells; host or cells: K562
# T6 sequence (P51617 whole entry): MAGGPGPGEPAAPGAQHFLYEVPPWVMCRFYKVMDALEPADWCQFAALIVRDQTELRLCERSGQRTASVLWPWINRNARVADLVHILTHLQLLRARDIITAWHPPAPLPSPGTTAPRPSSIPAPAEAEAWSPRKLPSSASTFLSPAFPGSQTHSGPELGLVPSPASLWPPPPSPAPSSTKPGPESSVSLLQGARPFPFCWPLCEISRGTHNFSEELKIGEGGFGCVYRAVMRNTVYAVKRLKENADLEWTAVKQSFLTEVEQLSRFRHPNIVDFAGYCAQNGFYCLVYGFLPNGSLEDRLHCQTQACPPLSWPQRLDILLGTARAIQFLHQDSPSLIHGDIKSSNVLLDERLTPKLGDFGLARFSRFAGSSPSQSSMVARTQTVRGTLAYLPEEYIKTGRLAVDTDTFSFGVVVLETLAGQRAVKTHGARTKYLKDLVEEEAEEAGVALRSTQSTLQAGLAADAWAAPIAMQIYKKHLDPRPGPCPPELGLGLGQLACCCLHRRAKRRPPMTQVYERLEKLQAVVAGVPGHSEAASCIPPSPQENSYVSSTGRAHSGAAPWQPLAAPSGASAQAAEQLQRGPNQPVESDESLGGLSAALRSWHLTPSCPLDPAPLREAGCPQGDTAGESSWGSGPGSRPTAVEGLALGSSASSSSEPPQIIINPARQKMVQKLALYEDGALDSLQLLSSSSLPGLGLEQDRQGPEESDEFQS
# Protocol: as §1
# CSK = biological target: T7, CSK (Homo sapiens, UniProt P41240);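 for 0.001 uM KAM: median log10 fold change of treatment over DMSO control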;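 for 0.01 uM KAM: median log10 fold change of treatment over DMSO control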;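 for 0.1 uM KAM: median log10 fold change of treatment over DMSO control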;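 for 1 uM KAM: median log10 fold change of treatment over DMSO control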;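 for 10 uM KAM: median log10 fold change of treatment over DMSO control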
# T7 construct: endogenous in cells; host or cells: K562
# T7 sequence (P41240 whole entry): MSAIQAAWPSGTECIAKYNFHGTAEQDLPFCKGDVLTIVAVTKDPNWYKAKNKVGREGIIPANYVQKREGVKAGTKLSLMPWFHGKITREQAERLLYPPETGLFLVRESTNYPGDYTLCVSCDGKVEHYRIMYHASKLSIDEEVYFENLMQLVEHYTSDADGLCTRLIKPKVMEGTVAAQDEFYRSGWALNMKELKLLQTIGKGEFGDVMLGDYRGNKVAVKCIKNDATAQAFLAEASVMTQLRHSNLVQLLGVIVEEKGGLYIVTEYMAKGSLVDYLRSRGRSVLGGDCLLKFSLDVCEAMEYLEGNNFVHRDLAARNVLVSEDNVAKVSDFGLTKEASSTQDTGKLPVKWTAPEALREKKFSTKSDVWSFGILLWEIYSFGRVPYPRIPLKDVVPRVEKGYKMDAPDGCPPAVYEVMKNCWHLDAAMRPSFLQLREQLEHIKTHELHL
# Protocol: as §1
# CHEK1 = biological target: T8, CHEK1 (Homo sapiens, UniProt O14757)
# T8 construct: endogenous in cells; host or cells: K562
# T8 sequence (O14757 1-476): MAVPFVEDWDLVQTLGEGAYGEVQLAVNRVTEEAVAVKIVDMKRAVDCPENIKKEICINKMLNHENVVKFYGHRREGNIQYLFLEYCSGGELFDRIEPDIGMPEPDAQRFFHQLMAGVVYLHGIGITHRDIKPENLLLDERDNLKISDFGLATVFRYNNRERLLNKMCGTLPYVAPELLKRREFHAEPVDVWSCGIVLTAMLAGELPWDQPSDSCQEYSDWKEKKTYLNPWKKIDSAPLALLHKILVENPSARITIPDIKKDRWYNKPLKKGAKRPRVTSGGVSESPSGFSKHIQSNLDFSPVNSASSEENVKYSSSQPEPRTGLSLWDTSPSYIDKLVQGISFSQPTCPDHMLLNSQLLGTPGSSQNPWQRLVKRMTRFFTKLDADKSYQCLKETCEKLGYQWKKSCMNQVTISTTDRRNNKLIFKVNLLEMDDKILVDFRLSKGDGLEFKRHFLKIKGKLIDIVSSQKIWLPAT
# Protocol: as §1
# TRRAP = biological target: T9, TRRAP (Homo sapiens, UniProt Q9Y4A5);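 for 0.001 uM KAM: median log10 fold change of treatment over DMSO control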;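 for 0.01 uM KAM: median log10 fold change of treatment over DMSO control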;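 for 0.1 uM KAM: median log10 fold change of treatment over DMSO control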;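 for 1 uM KAM: median log10 fold change of treatment over DMSO control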;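 for 10 uM KAM: median log10 fold change of treatment over DMSO control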
# T9 construct: endogenous in cells; host or cells: K562
# Protocol: as §1
# MAP3K1 = biological target: T10, MAP3K1 (Homo sapiens, UniProt Q13233)
# T10 construct: endogenous in cells; host or cells: K562 cell lysate
# T10 sequence (Q13233 whole entry): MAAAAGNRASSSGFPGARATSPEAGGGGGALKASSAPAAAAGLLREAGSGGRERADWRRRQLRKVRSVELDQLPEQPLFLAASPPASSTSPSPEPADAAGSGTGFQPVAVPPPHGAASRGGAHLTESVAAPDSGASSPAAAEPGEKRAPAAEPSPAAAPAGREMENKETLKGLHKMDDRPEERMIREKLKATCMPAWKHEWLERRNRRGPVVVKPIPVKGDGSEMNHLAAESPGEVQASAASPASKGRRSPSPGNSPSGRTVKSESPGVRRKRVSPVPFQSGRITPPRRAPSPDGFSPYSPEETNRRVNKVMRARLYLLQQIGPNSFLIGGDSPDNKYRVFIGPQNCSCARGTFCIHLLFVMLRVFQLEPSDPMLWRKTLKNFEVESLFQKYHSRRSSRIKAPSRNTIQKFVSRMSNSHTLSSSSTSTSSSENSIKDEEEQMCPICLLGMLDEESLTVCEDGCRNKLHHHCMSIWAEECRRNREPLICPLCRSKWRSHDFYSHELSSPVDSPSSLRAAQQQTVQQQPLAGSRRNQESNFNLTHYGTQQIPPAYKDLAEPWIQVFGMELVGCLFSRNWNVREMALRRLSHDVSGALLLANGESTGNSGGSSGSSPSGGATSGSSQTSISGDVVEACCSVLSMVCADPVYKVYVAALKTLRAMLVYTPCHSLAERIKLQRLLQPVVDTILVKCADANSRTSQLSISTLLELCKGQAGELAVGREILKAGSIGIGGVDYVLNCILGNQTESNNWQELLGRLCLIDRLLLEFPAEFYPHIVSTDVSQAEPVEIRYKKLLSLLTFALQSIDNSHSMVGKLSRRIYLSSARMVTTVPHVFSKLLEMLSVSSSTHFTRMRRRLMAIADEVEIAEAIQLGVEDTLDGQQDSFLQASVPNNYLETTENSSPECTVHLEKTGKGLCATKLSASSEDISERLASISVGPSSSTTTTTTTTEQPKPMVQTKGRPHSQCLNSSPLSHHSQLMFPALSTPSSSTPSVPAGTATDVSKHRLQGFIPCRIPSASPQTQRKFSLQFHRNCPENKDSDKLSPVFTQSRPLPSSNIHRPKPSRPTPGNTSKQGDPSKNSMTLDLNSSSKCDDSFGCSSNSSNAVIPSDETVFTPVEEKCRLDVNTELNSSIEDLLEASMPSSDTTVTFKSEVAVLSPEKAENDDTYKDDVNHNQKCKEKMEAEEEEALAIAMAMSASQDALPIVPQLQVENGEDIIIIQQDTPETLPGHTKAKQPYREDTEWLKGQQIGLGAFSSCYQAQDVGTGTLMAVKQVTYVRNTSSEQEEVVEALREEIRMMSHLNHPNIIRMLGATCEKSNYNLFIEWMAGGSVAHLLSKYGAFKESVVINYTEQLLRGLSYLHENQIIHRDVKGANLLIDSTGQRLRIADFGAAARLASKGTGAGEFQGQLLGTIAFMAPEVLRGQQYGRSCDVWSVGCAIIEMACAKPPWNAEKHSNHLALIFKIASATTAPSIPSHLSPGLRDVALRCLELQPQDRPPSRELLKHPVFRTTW
# Protocol: as §1
# [1] = read-out: RB50 (the source's name)
# [2] = KAM 0.001-10 uM, read-out: RB50 (the source's name)
smiles,measurement,setting,value
N#CCc1ccc(Nc2nc(NCCCN)cc(Nc3cc(C4CC4)[nH]n3)n2)cc1 [KAM],median Log10 fold change,RIOK2; 0.001 uM KAM,-0.01457
same,median Log10 fold change,RIOK2; 0.01 uM KAM,-0.03291
same,median Log10 fold change,RIOK2; 0.1 uM KAM,-0.138
same,median Log10 fold change,RIOK2; 1 uM KAM,-0.3574
same,median Log10 fold change,RIOK2; 10 uM KAM,-0.5027
same,IC50,RIOK2; [1],0.774 µM
same,IC50,STK25; [2],> 10 µM
same,0.001 uM KAM,STK25; relative to 0 uM KAM = 0,-0.05569
same,0.01 uM KAM,STK25; relative to 0 uM KAM = 0,-0.0234
same,0.1 uM KAM,STK25; relative to 0 uM KAM = 0,-0.1788
same,1 uM KAM,STK25; relative to 0 uM KAM = 0,-0.2616
same,10 uM KAM,STK25; relative to 0 uM KAM = 0,-0.2742
same,IC50,MAPK14; [2],> 10 µM
same,0.001 uM KAM,MAPK14; relative to 0 uM KAM = 0,-0.03046
same,0.01 uM KAM,MAPK14; relative to 0 uM KAM = 0,0.03223
same,0.1 uM KAM,MAPK14; relative to 0 uM KAM = 0,0.1026
same,1 uM KAM,MAPK14; relative to 0 uM KAM = 0,0.08115
same,10 uM KAM,MAPK14; relative to 0 uM KAM = 0,0.173
same,IC50,CSNK1A1; [2],> 10 µM
same,0.001 uM KAM,CSNK1A1; relative to 0 uM KAM = 0,0.05671
same,0.01 uM KAM,CSNK1A1; relative to 0 uM KAM = 0,-0.02341
same,0.1 uM KAM,CSNK1A1; relative to 0 uM KAM = 0,0.02518
same,1 uM KAM,CSNK1A1; relative to 0 uM KAM = 0,0.03521
same,10 uM KAM,CSNK1A1; relative to 0 uM KAM = 0,-0.008144
same,median Log10 fold change,TAOK3; 0.001 uM KAM,-0.0153
same,median Log10 fold change,TAOK3; 0.01 uM KAM,0.005812
same,median Log10 fold change,TAOK3; 0.1 uM KAM,-0.1317
same,median Log10 fold change,TAOK3; 1 uM KAM,-0.2502
same,median Log10 fold change,TAOK3; 10 uM KAM,-0.3407
same,IC50,TAOK3; [1],2.69 µM
same,IC50,IRAK1; [2],6.03 µM
same,0.001 uM KAM,IRAK1; relative to 0 uM KAM = 0,-0.01461
same,0.01 uM KAM,IRAK1; relative to 0 uM KAM = 0,-0.006177
same,0.1 uM KAM,IRAK1; relative to 0 uM KAM = 0,-0.1059
same,1 uM KAM,IRAK1; relative to 0 uM KAM = 0,-0.1722
same,10 uM KAM,IRAK1; relative to 0 uM KAM = 0,-0.3131
same,IC50,CSK; [2],> 10 µM
same,0.001 uM KAM,CSK; relative to 0 uM KAM = 0,0.01067
same,0.01 uM KAM,CSK; relative to 0 uM KAM = 0,-0.02135
same,0.1 uM KAM,CSK; relative to 0 uM KAM = 0,0.028
same,1 uM KAM,CSK; relative to 0 uM KAM = 0,-0.04258
same,10 uM KAM,CSK; relative to 0 uM KAM = 0,-0.03639
same,median Log10 fold change,CHEK1; 0.001 uM KAM,-0.01146
same,median Log10 fold change,CHEK1; 0.01 uM KAM,-0.009061
same,median Log10 fold change,CHEK1; 0.1 uM KAM,-0.1025
same,median Log10 fold change,CHEK1; 1 uM KAM,-0.2953
same,median Log10 fold change,CHEK1; 10 uM KAM,-0.4632
same,IC50,CHEK1; [1],1.29 µM
same,IC50,TRRAP; [2],> 10 µM
same,0.001 uM KAM,TRRAP; relative to 0 uM KAM = 0,-0.07186
same,0.01 uM KAM,TRRAP; relative to 0 uM KAM = 0,0.02458
same,0.1 uM KAM,TRRAP; relative to 0 uM KAM = 0,0.0008026
same,1 uM KAM,TRRAP; relative to 0 uM KAM = 0,0.06144
same,10 uM KAM,TRRAP; relative to 0 uM KAM = 0,-0.07955
same,median Log10 fold change,MAP3K1; 0.001 uM KAM,-0.0387
same,median Log10 fold change,MAP3K1; 0.01 uM KAM,-0.001908
same,median Log10 fold change,MAP3K1; 0.1 uM KAM,-0.0773
same,median Log10 fold change,MAP3K1; 1 uM KAM,-0.1722
same,median Log10 fold change,MAP3K1; 10 uM KAM,-0.3697
same,IC50,MAP3K1; [1],4.53 µM
